Reference: patent US10239903B2, “Pt (IV) derivatives and nanocarriers comprising them” (Yissum Research Development Company of the Hebrew …, priority 2014, dated 2019)

Assays:
A549 cell line = assay: MTT cytotoxicity assay; assay type: cell-based; conditions: 120 h treatment
Procedure: A549, BxPC-3 and OVCAR-8 cells were grown in RPMI medium supplemented with 10% fetal bovine serum (Gibco), 1% L-glutamine, 100 U/ml penicillin, 100 ug/ml streptomycin and 0.13% w/w gentamycin. […] The cell lines were maintained at 37° C. under 5% CO2. All cell culture products were obtained from Biological Industries (Beit HaEmek, Israel). The drugs were dissolved in DMSO and were added to the appropriate medium. Drug concentrations were chosen in a range that would never expose cells to more than 0.5% DMSO i.e. for 50 μg/ml maximal concentration; 0.5 mg of OXA-PAL-ACT was dissolved in 50 μl DMSO and then added to 10 ml cell medium.
(§4) To evaluate the efficacy of the various drugs, cells were seeded in a sterile, 24-well plate and incubated in the presence of the drug for 72 h/120 h at 37° C., 5% CO2. The number of cells alive was quantified using (3-(4,5-dimethylthiazol-2-yl)-2,5 diphenyltetrazolium bromide) (MTT) assay. The cells were incubated for 2 h with MTT, DMSO was added to dissolve the crystals and the plates were measured at 540 nm. Viability (%) graphs were constructed relative to the control of every assay. The data were plotted in a graph, lines connected the points, and the values were determined from the interpolated graph.

A2780-cisR cell line = assay: MTT cytotoxicity assay; assay type: cell-based; conditions: for IC50: cisplatin resistant line; for RF, resistance factor: ratio of IC50 in A2780-cisR to A2780; for IC50 A2780-cisR: 120 h treatment
Procedure: as §4

A2780 cell line = assay: MTT cytotoxicity assay; assay type: cell-based; conditions: for IC50: cisplatin sensitive parent line; for IC50 A2780: 120 h treatment
Procedure: as §4

A498 cell line = assay: MTT cytotoxicity assay; assay type: cell-based; conditions: 120 h treatment
Procedure: as §4

A375 cell line = assay: MTT cytotoxicity assay; assay type: cell-based; conditions: 120 h treatment
Procedure: as §4

HCT-15 cell line = assay: MTT cytotoxicity assay; assay type: cell-based; conditions: 120 h treatment
Procedure: as §4

[1] = Reduction potentials by cyclic voltammetry; assay type: physicochemical; conditions: versus Ag/AgCl
CT-26-luc cell line = assay: MTT antiproliferative assay; assay type: cell-based, murine; conditions: 120 h incubation
[2] = test system: SKOV-3 and SKOV-3-luc cells; assay: Whole-cell Pt accumulation (cellular uptake) by ICP-MS; assay type: cell-based, human; conditions: 24 h exposure, 5, 15, 25 μg/ml
Procedure: (§1) Following incubation, the drug-containing medium was removed, and cells were rinsed twice with cold PBS, trypsinized and were centrifuged into a pellet (4400 rpm, 5 min). 500 μl of nitric acid was added to cell pellets, and overnight incubated at 70° C. The samples were prepared by dilution using 0.1% SDS and 1% nitric acid lysis solution, and analyzed for Pt content by ICP-MS. DNA was isolated and purified from cell lines with the DNeasy Blood and Tissue Kit (Qiagen).
Cellular accumulation of platinum is a key step in cellular platinum drug pharmacology.

OVCAR-8 cell line = assay: MTT cytotoxicity assay; conditions: for IC50 OVCAR-8: 120 h treatment; for IC50: read-out: IC50 OVCAR-8, 120 h incubation
Procedure: (§5) The in vitro experiments were performed in cell lines of lung cancer (A549), prostate cancer (DU145 and PC-3), pancreatic cancer (BxPC-3) and ovarian cancer (SKOV-3 and OVCAR-8). A549, BxPC-3 and OVCAR-8 cells were grown in RPMI medium supplemented with 10% fetal bovine serum (Gibco), 1% L-glutamine, 100 U/ml penicillin, 100 ug/ml streptomycin and 0.13% w/w gentamycin. PC-3 cells were cultured in DMEM plus 10% fetal bovine serum, 1% L-glutamine, 100 U/ml penicillin, 100 μg/ml streptomycin and 1% pyrovate. DU145 cells were grown in RPMI1640 medium supplemented with 10% fetal bovine serum, 100 U/ml penicillin, and 100 ug/ml streptomycin. SKOV-3 cells were cultured McCoy's 5A medium supplemented with 10% fetal bovine serum, 100 U/ml penicillin, and 100 ug/ml streptomycin. The cell lines were maintained at 37° C. under 5% CO2. […] The drugs were dissolved in DMSO and were added to the appropriate medium. Drug concentrations were chosen in a range that would never expose cells to more than 0.5% DMSO i.e. for 50 μg/ml maximal concentration; 0.5 mg of OXA-PAL-ACT was dissolved in 50 μl DMSO and then added to 10 ml cell medium.
as §4
(§6) The cells were treated continuously for 120 h.

PC-3 LUC cell line = assay: MTT cytotoxicity assay; conditions: for IC50 PC-3 LUC: 120 h treatment; for IC50: read-out: IC50 PC-3-luc, 120 h incubation
Procedure: as §4, §6

SKOV-3 cells = assay: DNA platination by ICP-MS; assay type: cell-based, human; conditions: 24 h exposure, 25 μg/ml
Procedure: as §1

BxPc-3-luc2 cell line = assay: MTT antiproliferative assay; assay type: cell-based, human
Procedure: (§2) The antiproliferative activities of the novel compound (free and incorporated in NPs) and OXA were determined in HCT 116-luc2 (human colorectal cancer) and BxPc-3-luc2 (human pancreatic cancer) cell lines by the MTT assay.

HCT 116-luc2 cell line = assay: MTT antiproliferative assay; assay type: cell-based, human
Procedure: as §2

SKOV-3 cell line = assay: MTT cytotoxicity assay; conditions: for IC50 SKOV-3: 120 h treatment; for IC50: read-out: IC50 SKOV-3, 120 h incubation
Procedure: as §5, §4, §6

HCT-116-luc2 tumor = assay: Colon cancer mouse model, bioluminescent imaging; assay type: in vivo, SCID-bg mice; conditions: 33 days from inoculation; 9 mg/kg OPA equivalent to 5 mg/kg OXA, i.v. every fourth day
Procedure: 5-6 weeks-old SCID mice were inoculated subcutaneously with 1×10^6 HCT-116-luc2 cells. 1 day following tumor inoculation, treatment was initiated. Treatment was administered once every fourth day by i.v. injection (tail), 4 treatments in total.
Results are presented as mean±SEM. […] In fact equivalent doses were […] since 9 mg/kg OPA is equivalent to 5 mg/kg OXA.

[3] = Log P determination, shake flask method; conditions: n-octanol and water
Procedure: The partition coefficient of the new Pt compounds was determined in n-octanol and water by shake flask method.

PC-3 cell line = assay: MTT cytotoxicity assay; conditions: for IC50 PC-3: 120 h treatment; for IC50: read-out: IC50 PC-3, 120 h incubation
Procedure: as §5, §4, §6

BxPc-3-luc2 tumor = assay: Pancreatic carcinoma mouse model, bioluminescent imaging; assay type: in vivo, SCID-bg mice; conditions: i.v. once a week, 4 treatments
Excerpt: 5-6 weeks-old SCID mice were inoculated subcutaneously with 2×10^6 BxPC-3-luc cells.
Pancreatic tumors were induced by subcutaneous injection of the luciferase-transfected pancreas adenocarcinoma cells, BxPc-3-luc2, to SCID-bg mice. Tumor development and progression was validated by bioluminescent imaging. On the eighth day following tumor cells injection, a four-treatment cycle (intravenous route) was initiated (once a week).

BxPC-3 cell line = assay: MTT cytotoxicity assay; conditions: for IC50 BXPC-3: 120 h treatment; for IC50: read-out: IC50 BxPC-3, 120 h incubation
Procedure: as §5, §4, §6

[4] = for body weight variation over time: OXA 5 mg/kg, OXA-PAL-ACT 15 mg/kg i.v. once a week; for maximum tolerated dose: i.v., solution
SKOV-3 luc tumor = assay: Ovarian carcinoma mouse model, bioluminescent imaging; assay type: in vivo, SCID mice; conditions: from day 60; 15 mg/kg i.v. once a week, 4 treatments
Procedure: For induction of an ovarian carcinoma mouse model, 5-6 weeks-old severe combined immunodeficiency (SCID) mice, divided into 4 groups, were injected with 2×10^6 SKOV-3 luc cells directly into intraperitoneal cavity (i.p.). The cells were suspended in 100 μl PBS.
All treatments were given in an identical treatment regimen.

[5] = test system: RASM (Rat Aortic Smooth Muscle cells); conditions: non-cancer Rat Aortic Smooth Muscle cells
Excerpt: (§3) HaCaT cell line monolayer representing human keratinocytes, RASM line monolayer representing Rat Aortic Smooth Muscle cells.

HaCaT cell line = conditions: non-cancer human keratinocytes
Excerpt: as §3

N.N.[Cl][Pt][Cl] [Cisplatin, cisplatin, reference compound]
IC50 A549 (A549 cell line): 8.35 mg/L | IC50 (A2780-cisR cell line): 14.6 ± 1.44 µM | RF, resistance factor (A2780-cisR cell line): 15.53 | IC50 (A2780 cell line): 0.94 ± 0.04 µM | IC50 A498 (A498 cell line): 17.53 mg/L | IC50 A375 (A375 cell line): 3.75 ± 1.77 mg/L | IC50 HCT-15 (HCT-15 cell line): 11.32 mg/L

CCCCCCCCCCCCCCCC(=O)[O][Pt]12([O]C(C)=O)([NH]C3CCCCC3[NH]1)[O]C(=O)C(=O)[O]2 (centres unmarked) [OXA-PAL-ACT, oxaliplatin palmitate acetate]
Ep, reduction potential [1]: −0.54 ± 0.02 V | IC50 (CT-26-luc cell line): 0.62 ± 0.24 µM | cellular accumulation of platinum [2]: substantially higher compared to that of oxaliplatin | IC50 OVCAR-8 (OVCAR-8 cell line): 0.33 ± 0.03 mg/L | IC50 (OVCAR-8 cell line): 0.46 ± 0.03 µM | IC50 A549 (A549 cell line): 0.34 mg/L | IC50 PC-3 LUC (PC-3 LUC cell line): 0.33 ± 0.08 mg/L | IC50 (PC-3 LUC cell line): 0.46 ± 0.11 µM | IC50 A2780-cisR (A2780-cisR cell line): 0.24 mg/L | resistance factor (A2780-cisR cell line; calculated from IC50 values of dose-response curves, A2780-cisR vs A2780 (FIG. 10)): 1 | IC50 (A2780-cisR cell line): 0.34 ± 0.01 µM | RF, resistance factor (A2780-cisR cell line): 0.93 | nucleus DNA platination (SKOV-3 cells): higher DNA-platination | IC50 A2780 (A2780 cell line): 0.26 mg/L | IC50 (A2780 cell line): 0.36 ± 0.01 µM | IC50 (BxPc-3-luc2 cell line): 0.31 ± 0.09 µM | IC50 (HCT 116-luc2 cell line): 0.37 ± 0.02 µM | IC50 A498 (A498 cell line): 0.20 mg/L | IC50 SKOV-3 (SKOV-3 cell line): 0.39 ± 0.02 mg/L | IC50 (SKOV-3 cell line): 0.54 ± 0.03 µM | IC50 A375 (A375 cell line): 0.16 mg/L | tumor growth inhibition (HCT-116-luc2 tumor): no significant efficacy difference | Measured logP [3]: 2.06 | observed Log P ([3]; n=5): 2.76±0.14 | IC50 PC-3 (PC-3 cell line): 0.25 ± 0.01 mg/L | IC50 (PC-3 cell line): 0.35 ± 0.01 µM | pancreatic tumor growth inhibition (BxPc-3-luc2 tumor): significantly more efficient in pancreatic tumor growth inhibition compared to OXA and the control | IC50 BXPC-3 (BxPC-3 cell line): 0.25 ± 0.01 mg/L | IC50 (BxPC-3 cell line): 0.35 ± 0.01 µM | body weight variation over time [4]: did not reduce the animal weight | maximum tolerated dose [4]: 15 mg/kg | IC50 HCT-15 (HCT-15 cell line): 0.43 mg/L | tumor growth (bioluminescence) efficacy (SKOV-3 luc tumor): more efficient that OXA | therapeutic ratio in RASM [5]: > 2 | therapeutic ratio in HaCaT (HaCaT cell line): higher than 1.8

CCCCCCCCCCCCCCCC(=O)[O][Pt]1([O]C(=O)CCC(=O)O)[O]C(=O)C(=O)[O]1.NC1CCCCC1N [OXA-PAL-SUCC]
Ep, reduction potential [1]: −0.60 ± 0.01 V | IC50 (CT-26-luc cell line): 4.43 ± 0.93 µM | IC50 OVCAR-8 (OVCAR-8 cell line): 2.83 ± 0.38 mg/L | IC50 (OVCAR-8 cell line): 3.67 ± 0.49 µM | IC50 A549 (A549 cell line): 0.45 mg/L | IC50 PC-3 LUC (PC-3 LUC cell line): 0.78 ± 0.88 mg/L | IC50 (PC-3 LUC cell line): 1.01 ± 1.13 µM | IC50 (A2780-cisR cell line): 1.9 ± 0.2 µM | RF, resistance factor (A2780-cisR cell line): 4.13 | IC50 (A2780 cell line): 0.46 ± 0.01 µM | IC50 A498 (A498 cell line): 0.24 mg/L | IC50 SKOV-3 (SKOV-3 cell line): 20.67 ± 15.88 mg/L | IC50 (SKOV-3 cell line): 26.9 ± 20.6 µM | IC50 A375 (A375 cell line): 0.19 mg/L | Measured logP [3]: 2.07 | IC50 PC-3 (PC-3 cell line): 0.35 ± 0.01 mg/L | IC50 (PC-3 cell line): 0.45 ± 0.01 µM | IC50 BXPC-3 (BxPC-3 cell line): 1.23 ± 1.18 mg/L | IC50 (BxPC-3 cell line): 1.59 ± 1.52 µM | IC50 HCT-15 (HCT-15 cell line): 0.35 mg/L

CCCCCCCCCCCCCCCC(=O)[O][Pt]1([O]C(=O)CCCCCCCCCCCCCCC)[O]C(=O)C(=O)[O]1.NC1CCCCC1N [OXADP, oxaliplatin dipalmitate]
Ep, reduction potential [1]: −0.53 ± 0.02 V | IC50 (CT-26-luc cell line): > 55 µM | IC50 OVCAR-8 (OVCAR-8 cell line): 16 ± 3.12 mg/L | IC50 (OVCAR-8 cell line): 17.6 ± 3.43 µM | IC50 PC-3 LUC (PC-3 LUC cell line): 21.35 ± 19.30 mg/L | IC50 (PC-3 LUC cell line): 23.5 ± 21.2 µM | IC50 (A2780-cisR cell line): > 55 µM | RF, resistance factor (A2780-cisR cell line): >7.3 | IC50 (A2780 cell line): 7.5 ± 0.5 µM | IC50 SKOV-3 (SKOV-3 cell line): N.D* (N.D—Not Determined (The IC50 value is higher than maximal tested concentration-50 μg/ml)) | IC50 (SKOV-3 cell line): > 55 µM | Measured logP [3]: 3.49 | IC50 PC-3 (PC-3 cell line): 2.20 ± 1.21 mg/L | IC50 (PC-3 cell line): 2.42 ± 1.33 µM | IC50 BXPC-3 (BxPC-3 cell line): 24.07 ± 12.96 mg/L | IC50 (BxPC-3 cell line): 26.5 ± 14.3 µM

O=C1[O][Pt]2([NH][C@@H]3CCCC[C@H]3[NH]2)[O]C1=O [Oxaliplatin, reference compound]
IC50 (CT-26-luc cell line): 5.6 ± 0.6 µM | IC50 OVCAR-8 (OVCAR-8 cell line): 3.75 ± 1.77 mg/L | IC50 (OVCAR-8 cell line): 9.44 ± 4.44 µM | IC50 PC-3 LUC (PC-3 LUC cell line): 11 ± 3.60 mg/L | IC50 (PC-3 LUC cell line): 27.7 ± 9.05 µM | IC50 A2780-cisR (A2780-cisR cell line): 1.63 ± 0.11 mg/L | IC50 (A2780-cisR cell line): 4.1 ± 0.25 µM | IC50 A2780 (A2780 cell line): 0.31 mg/L | IC50 (A2780 cell line): 0.78 ± 0.02 µM | IC50 (BxPc-3-luc2 cell line): 62.7 ± 2.52 µM | IC50 (HCT 116-luc2 cell line): 2.3 ± 1.08 µM | IC50 SKOV-3 (SKOV-3 cell line): 32.5 ± 3.54 mg/L | IC50 (SKOV-3 cell line): 58.3 ± 6.34 µM | IC50 PC-3 (PC-3 cell line): 3.63 ± 0.15 mg/L | IC50 (PC-3 cell line): 9.16 ± 0.37 µM | pancreatic tumor growth inhibition (BxPc-3-luc2 tumor): did not show any efficacy | IC50 BXPC-3 (BxPC-3 cell line): 1.35 ± 0.35 mg/L | IC50 (BxPC-3 cell line): 3.38 ± 0.87 µM | body weight variation over time [4]: marked weight reduction | maximum tolerated dose [4]: 5 mg/kg
